The source of these data is patent US20250230193A1, “CYCLIC COMPOUND HAVING SELECTIVE KRAS INHIBITORY EFFECT ON HRAS AND NRAS” (CHUGAI SEIYAKU KABUSHIKI KAISHA, priority 2022, published 2025).

Structures are written as SMILES. *1 amine or outer side, *2 acyl side, *3 side chain or, on linkers, in order; H or OH if unused. Where a SMILES comes first, the peptide text is derived from it. Bridges are numbered along the chain shown (N, C = ends). [ ]: non-standard residue; d: D form. The star is where a group is joined. hPhe(3-Cl-4-CF3) = N[C@@H](CCc1ccc(C(F)(F)F)c(Cl)c1)C(=O)O; NPrPhe(4-CF3) = CCCN[C@@H](Cc1ccc(C(F)(F)F)cc1)C(=O)O; X27 = Cc1ccc(C[C@@H](C(=O)[*:2])N(CC2CCCCC2)[*:1])cc1; X22 = CCCN([C@@H](COC1CCC1)C(=O)[*:2])[*:1]; NMeGly(cPent) = CN[C@H](C(=O)O)C1CCCC1; Pro(4,4-F2) = O=C(O)[C@@H]1CC(F)(F)CN1; NMeD = CN[C@@H](CC(=O)O)C(=O)O; NMeL = CN[C@@H](CC(C)C)C(=O)O; Morpholide = C1CN(*)CCO1; NMeA = CN[C@@H](C)C(=O)O; Ac5c = NC1(C(=O)O)CCCC1; Aze = O=C(O)[C@@H]1CCN1; Ac4c = NC1(C(=O)O)CCC1; NEtG = CCNCC(=O)O; Sar = CNCC(=O)O

Assay [1] addresses GDP-bound NRAS wild-type protein (Homo sapiens, UniProt P01111). Kind of assay: Binding to NRAS by surface plasmon resonance (SPR), Single Cycle Kinetics. The note with it: SPR; for NRAS/KRAS (ratio of KD value for NRAS to KD value for KRAS) / NRAS/KRAS (ratio of KD value with respect to NRAS to KD value with respect to KRAS): GDP-bound NRAS wild-type vs GDP-bound KRAS wild-type.

For assay [2], the target named is GDP-bound HRAS wild-type protein (Homo sapiens, UniProt P01112). Nature of the assay: Binding to HRAS by surface plasmon resonance (SPR), Single Cycle Kinetics. The note with it: SPR; for HRAS/KRAS (ratio of KD value for HRAS to KD value for KRAS) / HRAS/KRAS (ratio of KD value with respect to HRAS to KD value with respect to KRAS): GDP-bound HRAS wild-type vs GDP-bound KRAS wild-type. On the technique in general: Surface plasmon resonance follows binding to a sensor surface in real time, without labels.
Chain of GDP-bound HRAS wild-type protein (P01112 whole entry): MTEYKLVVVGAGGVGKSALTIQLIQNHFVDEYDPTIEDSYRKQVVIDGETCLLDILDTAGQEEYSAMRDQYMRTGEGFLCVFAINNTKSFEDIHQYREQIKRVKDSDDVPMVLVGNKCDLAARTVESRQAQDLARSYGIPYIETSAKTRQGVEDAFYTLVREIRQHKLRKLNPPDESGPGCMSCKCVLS

Chain of GDP-bound NRAS wild-type protein (P01111 whole entry): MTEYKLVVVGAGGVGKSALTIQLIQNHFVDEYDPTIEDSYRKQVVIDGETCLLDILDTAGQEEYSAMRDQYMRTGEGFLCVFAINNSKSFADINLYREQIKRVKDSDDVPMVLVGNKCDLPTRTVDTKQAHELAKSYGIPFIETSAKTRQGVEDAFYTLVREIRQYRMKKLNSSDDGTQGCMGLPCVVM

Regarding `CC[C@H](C)[C@@H]1NC(=O)[C@H](CC(C)C)N(C)C(=O)C[C@@H](C(=O)N2CCOCC2)N(C)C(=O)[C@H](C2CCCC2)N(C)C(=O)C2(CCCC2)NC(=O)[C@@H]2CCCN2C(=O)[C@H](CCc2ccc(C(F)(F)F)c(Cl)c2)NC(=O)CN(C)C(=O)[C@H](Cc2ccc(C)cc2)N(CC2CCCCC2)C(=O)[C@@H]2CCN2C(=O)[C@H](C)N(C)C1=O` [PP0085] ([NMeL]I[NMeA][Aze][X27][Sar][hPhe(3-Cl-4-CF3)]P[Ac5c][NMeGly(cPent)][NMeD]-Morpholide; lactam N-11), the “NRAS/KRAS (ratio of KD for GDP-bound NRAS wild-type to KD for KRAS)” value in assay [1] (KD ratio NRAS/KRAS) was “C (A compound having a KD ratio of 0.1 or more and less than 3 is denoted as C)”. Moreover, the “HRAS/KRAS (ratio of KD for GDP-bound HRAS wild-type to KD for KRAS)” value in assay [2] (KD ratio HRAS/KRAS) was “C (A compound having a KD ratio of 0.1 or more and less than 3 is denoted as C)”.

In the case of `CCO[C@@H]1C[C@H]2C(=O)NC3(CC(C)(C)C3)C(=O)N(C)[C@@H](C3CCCC3)C(=O)N(C)[C@H](C(=O)N(C)C)CC(=O)N(C)[C@@H](CC(C)C)C(=O)N[C@@H]([C@@H](C)CC)C(=O)N(C)CC(=O)N(C)[C@H]3C/C=C\CCN(C3=O)[C@@H](Cc3ccc(C(F)(F)F)cc3)C(=O)N(C)CC(=O)N[C@@H](CCc3ccc(C(F)(F)F)c(F)c3)C(=O)N2C1` [PP1931], in assay [1] (KD ratio), the “NRAS/KRAS (ratio of KD value for NRAS to KD value for KRAS)” value was “A (a compound having 10 or more and less than 20 is denoted as A)”. In assay [2] (KD ratio), the “HRAS/KRAS (ratio of KD value for HRAS to KD value for KRAS)” value was “B (a compound having 3 or more and less than 10 is denoted as B)”.

For the molecule `CC[C@H](C)[C@@H]1NC(=O)[C@H](CC(C)C)N(C)C(=O)C[C@@H](C(=O)N2CCOCC2)N(C)C(=O)[C@H](C2CCCC2)N(C)C(=O)C2(CCC2)NC(=O)[C@@H]2C[C@@H](C(F)(F)F)CN2C(=O)[C@H](CCc2cc(F)c(C(F)(F)F)c(F)c2)NC(=O)CN(C)C(=O)[C@H](Cc2ccc(C(F)(F)F)cc2)N2CCCC[C@@H](C2=O)N(C)C(=O)CN(C)C1=O` [PP0809], the “NRAS/KRAS (ratio of KD value with respect to GDP-bound NRAS wild-type protein to KD value with respect to KRAS)” value in assay [1] (KD ratio NRAS/KRAS) is “B (a compound having 3 or more and less than 10 is denoted as B)”. Moreover, the “HRAS/KRAS (ratio of KD value with respect to GDP-bound HRAS wild-type protein to KD value with respect to KRAS)” value in assay [2] (KD ratio HRAS/KRAS) is “B (a compound having 3 or more and less than 10 is denoted as B)”.

Regarding `CCCN1C(=O)[C@@H]2CCN2C(=O)[C@H](C)N(C)C(=O)[C@H]([C@@H](C)CC)NC(=O)[C@H](CC(C)C)N(C)C(=O)C[C@@H](C(=O)N2CCOCC2)N(C)C(=O)[C@H](C2CCCC2)N(C)C(=O)C2(CCC2)NC(=O)[C@@H]2CCCN2C(=O)[C@H](CCc2ccc(C(F)(F)F)c(Cl)c2)NC(=O)CN(C)C(=O)[C@@H]1COC1CCC1` [PP1818] ([NMeL]I[NMeA][Aze][X22][Sar][hPhe(3-Cl-4-CF3)]P[Ac4c][NMeGly(cPent)][NMeD]-Morpholide; lactam N-11), the “NRAS/KRAS (ratio of KD value for NRAS to KD value for KRAS)” value in assay [1] (KD ratio) is “C (A compound having a KD ratio of 0.1 or more and less than 3 is denoted as C)”. In addition, the “HRAS/KRAS (ratio of KD value for HRAS to KD value for KRAS)” value in assay [2] (KD ratio) is “B (a compound having 3 or more and less than 10 is denoted as B)”.

As for `CCCO[C@H](C)[C@@H]1NC(=O)[C@H](COCC)N(C)C(=O)C[C@@H](C(=O)N(C)CC)N(C)C(=O)[C@H](C2CCCC2)N(C)C(=O)C2(CC(C)(C)C2)NC(=O)[C@@H]2C[C@H](C)CN2C(=O)[C@H](CCc2ccc(C(F)(F)F)c(OC)c2)NC(=O)CN(C)C(=O)[C@H](Cc2ccc(C)cc2)N2CC/C=C\C[C@@H](C2=O)N(C)C(=O)CN(C)C1=O` [PP2425], the “NRAS/KRAS (ratio of KD value with respect to NRAS to KD value with respect to KRAS)” value in assay [1] is listed as “AA (a compound having 20 or more is denoted as AA)”. The “HRAS/KRAS (ratio of KD value with respect to HRAS to KD value with respect to KRAS)” value in assay [2] was “A (a compound having 10 or more and less than 20 is denoted as A)”.

`CCO[C@@H]1C[C@H]2C(=O)NC3(CCC3)C(=O)N(C)[C@@H](C3CCCC3)C(=O)N(C)[C@H](C(=O)N(C)C)CC(=O)N(C)[C@@H](CC)C(=O)N[C@@H]([C@@H](C)CC)C(=O)N(C)CC(=O)N(C)[C@H]3CCCCN(C3=O)[C@@H](Cc3ccc(C(F)(F)F)cc3)C(=O)N(C)CC(=O)N[C@@H](CCc3cc(Cl)c(Cl)c(Cl)c3)C(=O)N2C1` [PP0988]: the “NRAS/KRAS (ratio of KD value with respect to NRAS to KD value with respect to KRAS)” value in assay [1] (KD ratio) is “C (A compound having a KD ratio of 0.1 or more and less than 3 is denoted as C)”. The “HRAS/KRAS (ratio of KD value with respect to HRAS to KD value with respect to KRAS)” value in assay [2] (KD ratio) was “B (a compound having 3 or more and less than 10 is denoted as B)”.

As for `CCCN1C(=O)CN(C)C(=O)CN(CC)C(=O)[C@H]([C@@H](C)CC)NC(=O)[C@H](CC(C)C)N(C)C(=O)C[C@@H](C(=O)N(C)C)NC(=O)[C@H](C2CCCC2)N(C)C(=O)C2(CCCC2)NC(=O)[C@@H]2CC(F)(F)CN2C(=O)[C@H](CCc2ccc(C(F)(F)F)c(Cl)c2)NC(=O)CN(C)C(=O)[C@@H]1Cc1ccc(C(F)(F)F)cc1` [PP0369] ([NMeL]I[NEtG][Sar][NPrPhe(4-CF3)][Sar][hPhe(3-Cl-4-CF3)][Pro(4,4-F2)][Ac5c][NMeGly(cPent)]D-NMe2; lactam N-11), the “NRAS/KRAS (ratio of KD for GDP-bound NRAS wild-type to KD for KRAS)” value in assay [1] (KD ratio NRAS/KRAS) is “B (a compound having 3 or more and less than 10 is denoted as B)”. The “HRAS/KRAS (ratio of KD for GDP-bound HRAS wild-type to KD for KRAS)” value in assay [2] (KD ratio HRAS/KRAS) is “C (A compound having a KD ratio of 0.1 or more and less than 3 is denoted as C)”.
